Experimental data reported in ChEMBL document CHEMBL3885861, “Open TG-GATES”.

Species on record: Rattus norvegicus
Assay: Open TG-GATES - Regimen: Single
Format: toxicity, organism-based, Sprague-Dawley
Parameters: regimen Single, gender Male, age 6 weeks
Conditions: in vivo, po, 0 mg/kg, route gavage, dose level Control; for APTT / Bas / Eos / Fbg / Ht / Lym / MCHC / MCV / Mono / PT / Plat / RBC / Ret / WBC / Hb: tissue Blood; for KIDNEY_L / KIDNEY_R / KIDNEY_TOTAL: tissue Kidney; for LIVER: tissue Liver; for ALP / ALT / AST / BUN / CRE / DBIL / GLC / IP / K / LDH / RALB / TBIL / TC / TP / gamma-GTP / PL: tissue Plasma

Compound: CN(C)CCCN1c2ccccc2CCc2ccccc21 [IMIPRAMINE]
- TERMINAL_BW (3 h): 203.9 g
- APTT (3 h): 16.9 s
- Bas (3 h): 0.2%
- Eos (3 h): 1%
- Fbg (3 h): 270.6 mg/dL
- Ht (3 h): 40.9%
- Lym (3 h): 79.2%
- MCHC (3 h): 32.3%
- MCV (3 h): 64.7 fL
- Mono (3 h): 2.8%
- PT (3 h): 15.9 s
- Plat (3 h): 112.7 x10_4/uL
- RBC (3 h): 632.8 x10_4/ul
- Ret (3 h): 8.2%
- WBC (3 h): 81.7 x10_2/uL
- KIDNEY_L (3 h): 0.9 g
- KIDNEY_R (3 h): 0.9 g
- KIDNEY_TOTAL (3 h): 1.7 g
- LIVER (3 h): 9.1 g
- ALP (3 h): 1571.6 IU/L
- ALT (3 h): 52 IU/L
- AST (3 h): 84.6 IU/L
- BUN (3 h): 9 mg/dL
- CRE (3 h): 0.2 mg/dL
- DBIL (3 h): 0.01 mg/dL
- GLC (3 h): 183.2 mg/dL
- IP (3 h): 8.9 mg/dL
- K (3 h): 4 meq/L
- LDH (3 h): 111 IU/L
- RALB (3 h): 2.6 g/dL
- TBIL (3 h): 0.07 mg/dL
- TC (3 h): 84 mg/dL
- TP (3 h): 5.4 g/dL
- gamma-GTP (3 h): 1.6 IU/L
- TERMINAL_BW (6 h): 201.5 g
- APTT (6 h): 15.5 s
- Bas (6 h): 0.4%
- Eos (6 h): 0.8%
- Fbg (6 h): 326 mg/dL
- Hb (6 h): 12.8 g/dL
- Ht (6 h): 39.2%
- Lym (6 h): 73.2%
- MCHC (6 h): 32.5%
- MCV (6 h): 63.9 fL
- Mono (6 h): 3%
- PT (6 h): 15.8 s
- Plat (6 h): 112.2 x10_4/uL
- RBC (6 h): 614.8 x10_4/ul
- Ret (6 h): 7.6%
- WBC (6 h): 95 x10_2/uL
- KIDNEY_L (6 h): 0.9 g
- KIDNEY_R (6 h): 0.9 g
- KIDNEY_TOTAL (6 h): 1.9 g
- LIVER (6 h): 9.1 g
- ALP (6 h): 1465 IU/L
- ALT (6 h): 52.8 IU/L
- AST (6 h): 99.2 IU/L
- BUN (6 h): 8.4 mg/dL
- CRE (6 h): 0.2 mg/dL
- GLC (6 h): 176.2 mg/dL
- IP (6 h): 9.4 mg/dL
- K (6 h): 4 meq/L
- LDH (6 h): 80.4 IU/L
- PL (6 h): 133.6 mg/dL
- RALB (6 h): 2.5 g/dL
- TBIL (6 h): 0.07 mg/dL
- TC (6 h): 72.6 mg/dL
- TP (6 h): 5.3 g/dL
- gamma-GTP (6 h): 1.2 IU/L
- TERMINAL_BW (9 h): 200.5 g
- APTT (9 h): 16 s
- Bas (9 h): 0.4%
- Eos (9 h): 1%
- Fbg (9 h): 291.6 mg/dL
- Hb (9 h): 12.9 g/dL
- Ht (9 h): 40.1%
- Lym (9 h): 80.8%
- MCHC (9 h): 32.3%
- MCV (9 h): 65.1 fL
- Mono (9 h): 2.4%
- PT (9 h): 15.3 s
- Plat (9 h): 110.6 x10_4/uL
- RBC (9 h): 615.4 x10_4/ul
- Ret (9 h): 8.2%
- WBC (9 h): 76.7 x10_2/uL
- KIDNEY_L (9 h): 0.9 g
- KIDNEY_R (9 h): 0.9 g
- KIDNEY_TOTAL (9 h): 1.8 g
- LIVER (9 h): 8.2 g
- ALP (9 h): 1396.6 IU/L
- ALT (9 h): 37.4 IU/L
- AST (9 h): 69.6 IU/L
- BUN (9 h): 8 mg/dL
- CRE (9 h): 0.1 mg/dL
- DBIL (9 h): 0.008 mg/dL
- GLC (9 h): 178 mg/dL
- IP (9 h): 9.9 mg/dL
- K (9 h): 4.1 meq/L
- LDH (9 h): 59 IU/L
- PL (9 h): 136 mg/dL
- RALB (9 h): 2.5 g/dL
- TBIL (9 h): 0.068 mg/dL
- TC (9 h): 74.4 mg/dL
- TP (9 h): 5.2 g/dL
- gamma-GTP (9 h): 1 IU/L
- TERMINAL_BW (24 h): 217.3 g
- APTT (24 h): 17.1 s
- Bas (24 h): 0.2%
- Eos (24 h): 1.2%
- Fbg (24 h): 265.2 mg/dL
- Ht (24 h): 41.7%
- Lym (24 h): 76.2%
- MCHC (24 h): 32.1%
- MCV (24 h): 66.7 fL
- Mono (24 h): 2.8%
- PT (24 h): 16.1 s
- Plat (24 h): 114.2 x10_4/uL
- RBC (24 h): 626.2 x10_4/ul
- Ret (24 h): 7.8%
- WBC (24 h): 93.4 x10_2/uL
- KIDNEY_L (24 h): 0.9 g
- KIDNEY_R (24 h): 0.9 g
- KIDNEY_TOTAL (24 h): 1.8 g
- LIVER (24 h): 10.2 g
- ALP (24 h): 1689.2 IU/L
- ALT (24 h): 59 IU/L
- AST (24 h): 83.4 IU/L
- CRE (24 h): 0.2 mg/dL
- DBIL (24 h): 0.02 mg/dL
- GLC (24 h): 185.4 mg/dL
- IP (24 h): 8.1 mg/dL
- K (24 h): 3.9 meq/L
- LDH (24 h): 75.2 IU/L
- RALB (24 h): 2.6 g/dL
- TBIL (24 h): 0.06 mg/dL
